Source: patent publication US20100144759A1, “NOVEL N-(FLUORO-PYRAZINYL)-PHENYLSULFONAMIDES AS MODULATORS OF CHEMOKINE RECEPTOR CCR4” (AstraZeneca AB, priority 2005, published 2010)

Columns and labels:
[1] = test system: salmonella typhimurium LT2 strains TA98 and TA100; assay: Metabolite testing: mutagenicity (Maron and Ames test); format: cell-based; conditions: strains TA98 and TA100, with or without metabolic activation (rat liver S9)
Procedure: 5-Fluoro-3-methoxy-2-pyrazinamine and 6-fluoro-3-methoxy-2-pyrazinamine were tested for mutagenicity according to the test procedure of Maron and Ames described in Mutation Res. 1983; 113:173-215 using salmonella typhimurium LT2 strains TA98 and TA100. For metabolic activation a homogenate of liver from Aroclor 1254-treated rats (post-mitochondrial fraction (S9) purchased from Molecular Toxicology Inc., Boone, N.C., USA) was added to agar plates (without histidine) together with the test compound and the bacterial tester strains; the complete activation system employed was: phosphate buffer (0.1 mol/L, pH 7.4):100 mmol/L; magnesium chloride: 8 mmol/L; potassium chloride: 33 mmol/L; nicotinamide adenine dinucleotide phosphate: 4 mmol/L; glucose-6-phosphate:5 mmol/L; and rat liver homogenate (S9 fraction):10% v/v. The mean number of revertant colonies and sample standard deviation (from control plates) were calculated for each test group. A test compound was considered to be mutagenic when the following criteria were satisfied: i) the number of revertant colonies in any strain increased in the presence of one or more dose of the test compound, with or without metabolic activation ii) there was a dose-related increase in the number of revertant colonies, and iii) any increase was reproducible.

[2] = Measurement of plasma protein binding (equilibrium dialysis); format: in vitro ADME; conditions: pooled human plasma, human plasma vs buffer pH 7.4, 37° C., 10 μM compound, read-out: % Bound Human Plasma (converted)
Procedure: The extent of plasma protein binding was determined via equilibrium dialysis of a compound between human plasma and aqueous buffer at 37° C. and determination of the concentration of compound in the plasma and buffer by HPLC-MS/MS.
Dialysis cells (molecular weight cut-off 5000) were prepared by rinsing with water followed by soaking in the dialysis buffer for a minimum of 1 hour. The dialysis buffer was isotonic buffered saline pH 7.4. Stock solutions of compound in dimethylsulphoxide were prepared at a concentration of 1 mM. Frozen pooled Human plasma was obtained from volunteers.
The stock DMSO solution of a compound was added to the plasma at a ratio of 10 μl of DMSO to each ml of plasma.
Dialysis cells were then prepared and one half of the cell filled with 750 μl of dialysis buffer and the other half of the cell with 750 μl of plasma solution of compound. Once prepared the cells were sealed and immersed in a water bath at 37° C. These cells were then rotated for a minimum of 4 hours to equilibrate.
After equilibration 500 μl of the buffer samples were removed and added to HPLC vials along with 100 μl of plasma (sample in 6-fold diluted plasma), and 100 μl of the plasma samples were removed and added to HPLC vials along with 500 μl of dialysis buffer (sample in 6-fold diluted plasma).
The samples were then analysed using HPLC-MS/MS.
The concentration of compound in the samples were determined using MassLynx version 4.0 software (produced by Waters/Micromass) that automatically calculated a calibration curve and the concentration of compound in the cells. Plasma protein binding was determined from the calibration curve as the percentage of compound bound in human plasma (% bound) using the following equation wherein the factor in the numerator accounts for the small dilution of the aqueous samples with plasma and the factor of 6 in the denominator serves to correct for the 6-fold dilution of the plasma samples with buffer;

CCR4 [3] = biological target: T1, CCR4 (Homo sapiens, UniProt P51679); assay: FMAT whole cell binding assay; conditions: CHO-K1 cells expressing human recombinant CCR4; inhibition of FB-MDC binding; read-out: FMAT CCR4 pIC50 (converted)
T1 construct: host or cells: CHO-K1
T1 sequence (P51679 1-360): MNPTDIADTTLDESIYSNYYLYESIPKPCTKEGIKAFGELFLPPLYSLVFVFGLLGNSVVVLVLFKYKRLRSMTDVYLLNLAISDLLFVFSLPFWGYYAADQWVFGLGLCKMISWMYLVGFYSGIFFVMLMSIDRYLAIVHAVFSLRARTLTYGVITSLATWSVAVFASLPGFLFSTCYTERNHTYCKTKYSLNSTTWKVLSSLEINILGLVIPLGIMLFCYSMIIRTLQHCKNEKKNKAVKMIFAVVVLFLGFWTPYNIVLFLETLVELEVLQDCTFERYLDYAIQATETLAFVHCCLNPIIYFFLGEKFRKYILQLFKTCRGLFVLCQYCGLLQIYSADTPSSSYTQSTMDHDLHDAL
Procedure: CHO-K1 cells stably expressing the human recombinant CCR4 receptor (Euroscreen; Brussels, Belgium) were cultured in NUT.MIX.F—12(HAM) medium with glutamax-1, containing 10% (v/v) foetal bovine serum and 400 μg ml^−1 geneticin.
Cells were harvested at approximately 70% confluence by treatment with a cell dissociation buffer, and seeded at 5×10^3 cells/100 μl culture medium into wells of a black Costar clear-bottomed 96-well microtitre plates. Plates were incubated overnight at 37° C. in 5% CO2 and used the following day.
Before use, the cell plates were washed twice with 100 μl Hanks balanced salt solution (HBSS).
After two hours incubation in the dark at room temperature, the plates were analysed in an FMAT8100 reader (Applied Biosystems) to measure fluorescence that was associated with binding of FB-MDC to the cells.

CCR4 [4] = biological target: T1, CCR4; assay: Predicted whole blood potency; conditions: calculated: CCR4 pIC50+Log((100−% Bound)/100)
Procedure: Predicted whole blood potency is a measure of the combined effects of CCR4 activity and plasma protein binding, and is calculated by the formula: Whole Blood Potency=CCR4 pIC50+Log((100−% Bound)/100).

Compound | fraction unbound at 10 µM [2] | IC50 (CCR4 [3]) [nM] | Whole Blood Potency (CCR4 [4]) | mutagenicity test result [1]
COc1nc(F)cnc1N [5-fluoro-3-methoxy-2-pyrazinamine, 5-Fluoro-3-methoxy-2-pyrazinamine] |  |  |  | negative
COc1ncc(F)nc1N [6-fluoro-3-methoxy-2-pyrazinamine] |  |  |  | negative
COc1nc(Cl)cnc1NS(=O)(=O)c1cccc(Cl)c1Cl [Ex. 5 WO03/059893, 2,3-dichloro-N-(5-chloro-3-methoxy-2-pyrazinyl)benzenesulphonamide, reference compound] | 0.002 | 12.6 | 5.2 | 
COc1nccnc1NS(=O)(=O)c1cccc(Cl)c1Cl [Ex. 30 WO03/059893, 2,3-dichloro-N-(3-methoxy-2-pyrazinyl)benzenesulphonamide, reference compound] | 0.011 | 20 | 5.7 | 
COc1nc(F)cnc1NS(=O)(=O)c1cccc(Cl)c1Cl [Example 2, 2,3-dichloro-N-(5-fluoro-3-methoxypyrazin-2-yl)-benzenesulfonamide] | 0.006 | 3.16 | 6.3 | 
COc1nc(CO)c(F)nc1NS(=O)(=O)c1cccc(Cl)c1Cl [Example 4, 2,3-Dichloro-N-[6-fluoro-5-(hydroxymethyl)-3-methoxypyrazin-2-yl]-benzenesulfonamide] | 0.013 | 15.8 | 5.9 | 
COc1nc(F)c(CO)nc1NS(=O)(=O)c1cccc(Cl)c1Cl [Example 6, 2,3-Dichloro-N-[5-fluoro-6-(hydroxymethyl)-3-methoxypyrazin-2-yl]-benzenesulfonamide] | 0.005 | 6.31 | 5.9 | 

More lines, main results first:

fraction unbound at 10 µM [2] | IC50 (CCR4 [3]) [nM] | Whole Blood Potency (CCR4 [4]) | Compound | mutagenicity test result [1]
0.002 | 5.01 | 5.6 | COc1nc(Br)cnc1NS(=O)(=O)c1cccc(Cl)c1Cl [Ex. 8 WO03/059893, 2,3-dichloro-N-(5-bromo-3-methoxy-2-pyrazinyl)benzenesulphonamide, reference compound] | 
0.01 | 5.01 | 6.3 | COc1nc(F)cnc1NS(=O)(=O)c1cccc(F)c1Cl [Example 1, 2-Chloro-3-fluoro-N-(5-fluoro-3-methoxypyrazin-2-yl)-benzenesulfonamide] | 
0.003 | 3.16 | 6.0 | COc1ncc(F)nc1NS(=O)(=O)c1cccc(Cl)c1Cl [Example 3, 2,3-Dichloro-N-(6-fluoro-3-methoxypyrazin-2-yl)-benzenesulfonamide] | 
0.011 | 10 | 6.0 | COc1nc(F)cnc1NS(=O)(=O)c1cccc(Cl)c1F [Example 5, 3-Chloro-2-fluoro-N-(5-fluoro-3-methoxypyrazin-2-yl)-benzenesulfonamide] | 
0.004 | 3.98 | 6.0 | COc1nc(F)cnc1NS(=O)(=O)c1cccc(Cl)c1C [Example 7, 3-Chloro-N-(5-fluoro-3-methoxypyrazin-2-yl)-2-methyl-benzenesulfonamide] | 
